Assays:
[1] = system: C. elegans fem-1(hc17) sterile adults; assay: Adult survival assay of sterile fem-1(hc17) adults on compound-supplemented medium; type: in vivo, Caenorhabditis elegans
Method: For survival assays, young adult (day 0) animals were transferred onto fresh medium supplemented with the test compound at a range of concentrations. The compounds were tested at indicated concentrations in the growth medium (below). C. elegans nematodes are surrounded by a thick collagenous cuticle and are therefore relatively impermeable to environmental compounds. […] Survival was scored every 2–3 days as the ability to move in response to a gentle mechanical stimulus. During the first week of adulthood, C. elegans hermaphrodites are reproductively competent and normally produce 200–300 progeny. Since progeny production would complicate survival analysis, these experiments were performed using fem-1(hc17) animals that are sterile due to a spermatogenesis defect.
Resveratrol and picetannol were obtained from commercial sources (Sigma-Aldrich, Inc. and Calbiochem-Novobiochem Corp., respectively). The methoxylated stilbenes pinostilbene, desoxyrhapontigenin, 3-hydroxy-5,4'-dimethoxystilbene and pterostilbene (Figure 1) were synthesized by partial methylation of trans-resveratrol as previously reported. The methoxylated stilbenes were purified by preparative layer chromatography (Merck Silica gel 60 F254; EMD Chemicals Inc., Gibbstown, NJ) using the developing solvent chloroform:methanol (96:4) with 1% formic acid. […] These stilbenes were identified from their ^1H-NMR spectra (Bruker 400 MHz; Bruker, Billerica, MA). All stilbenes were dissolved in ethanol to 25 mg/mL before use. 5-Fluoro-deoxyuracil (Sigma Chemical Co.) was dissolved to 1 mg/mL in sterile water and stored frozen at -20°C until use. For treating C. elegans adults, each compound was added in a 200 μL volume to the top of a 1-day old bacterial lawn grown on NGM medium to final concentrations as indicated. Compounds were allowed 2 hours to diffuse through the agar medium before animals were added.
For survival analyses, synchronized populations of sterile fem-1(hc17) hermaphrodites were obtained by first transferring several fertile hermaphrodites to a fresh plate at 25°C and allowing them to lay eggs for several hours. The parent hermaphrodites were removed and embryos were allowed to develop into sterile adults at 25°C, which takes approximately 48 hours. On the first day of adulthood, referred to as day 0, sterile adults were transferred onto fresh media supplemented with stilbenes at indicated concentrations, and maintained at 25°C. Adult survival was scored every 2–3 days by the animal's ability to move in response to a gentle mechanical stimulus. Statistical analysis of survival was performed using the JMP software package.

cytochrome P450 2E1 = system: cytochrome P450 2E1; design: method as in PMID 16684708; settings: cited from earlier work
[2] = system: gld-1(q485) germline tumors; assay: Germline tumor growth assay (DAPI-stained tumor area); type: in vivo, Caenorhabditis elegans; settings: for effect on tumor size (in words): 100 μM dose
Method: To assess the effects of methoxylation on antitumor activity in vivo, tumor area was measured in gld-1(q485) adults treated for four days with either resveratrol trimethylether, desoxyrhapontigenin or pterostilbene, which are methoxylated and toxic to adults, or resveratrol, which is hydroxylated and nontoxic. As controls, germline tumor area was also measured in animals treated with carrier only (ethanol) or with 5-fluoro-2'-deoxyuradine (FUDR), a thymidylate synthetase inhibitor that blocks cell proliferation. […] After four days of treatment, animals were collected and germline tumors were visualized by DAPI staining to visualize germcell nuclei. Because the level of DAPI staining was not quantitative between animals, we DAPI signal intensity was not used as a measure of tumor size. Rather, tumor size was directly measured as the area of the DAPI-stained gonad.
Resveratrol and picetannol were obtained from commercial sources (Sigma-Aldrich, Inc. and Calbiochem-Novobiochem Corp., respectively). The methoxylated stilbenes pinostilbene, desoxyrhapontigenin, 3-hydroxy-5,4'-dimethoxystilbene and pterostilbene (Figure 1) were synthesized by partial methylation of trans-resveratrol as previously reported. The methoxylated stilbenes were purified by preparative layer chromatography (Merck Silica gel 60 F254; EMD Chemicals Inc., Gibbstown, NJ) using the developing solvent chloroform:methanol (96:4) with 1% formic acid. The Rf values for pterostilbene, 3-hydroxy-5,4'-dimethoxystilbene, pinostilbene and desoxyrhapontigenin are 0.61, 0.57, 0.28, and 0.20, respectively. These stilbenes were identified from their ^1H-NMR spectra (Bruker 400 MHz; Bruker, Billerica, MA). All stilbenes were dissolved in ethanol to 25 mg/mL before use. 5-Fluoro-deoxyuracil (Sigma Chemical Co.) was dissolved to 1 mg/mL in sterile water and stored frozen at -20°C until use. For treating C. elegans adults, each compound was added in a 200 μL volume to the top of a 1-day old bacterial lawn grown on NGM medium to final concentrations as indicated. Compounds were allowed 2 hours to diffuse through the agar medium before animals were added.
The gld-1(q485) mutation causes a defect in oocyte development that results in growth of germline tumors that fill the somatic gonad, eventually leading to the animal's death. To examine the effects of the stilbenes on gld-1(q485) germline tumors, day 0 adults were placed on stilbene-containing medium in the presence of OP50 bacteria as food source. After 4 days at 20°C, animals were fixed in methanol and germcell nuclei were visualized by staining with DAPI. Images were collected with the entire animal in view using the 4× objective on a Nikon E800 microscope equipped with a Hamamatsu Orca ER CCD camera using OpenLab imaging software. NIH Image J software was used to measure germline tumor growth in treated and untreated animals. Tumor area was measured by outlining the entire DAPI-stained tumor.

[3] = Trial 1, 100 μM in medium, from day 0 of adulthood, 25°C, control 12.16 days
[4] = Trial 1, 100 μM, treated vs control mean lifespan
[5] = Trial 2, 20 μM, control 11.05 days
[6] = Trial 2, 40 μM, control 11.05 days
[7] = Trial 6, 20 μM, control 15.32 days
[8] = Trial 6, 40 μM, control 15.32 days
[9] = Trial 6, 100 μM, control 15.32 days
[10] = Trial 3, 100 μM, control 15.37 days
[11] = Trial 3, 200 μM, control 15.37 days
[12] = Trial 4, 20 μM, control 11.26 days
[13] = Trial 4, 40 μM, control 11.26 days
[14] = Trial 4, 100 μM, control 11.26 days

Row | Structure (SMILES) | Mean lifespan, Treated [1, 3] [days] | Relative survival [1, 4] [%] | Relative survival ([1]; Trial 2, 20 μM) [%] | Mean lifespan, Treated [1, 5] [days] | Relative survival ([1]; Trial 2, 40 μM) [%] | Mean lifespan, Treated [1, 6] [days] | Relative survival ([1]; Trial 6, 20 μM) [%] | Mean lifespan, Treated [1, 7] [days] | Relative survival ([1]; Trial 6, 40 μM) [%] | Mean lifespan, Treated [1, 8] [days] | Relative survival ([1]; Trial 6, 100 μM) [%] | Mean lifespan, Treated [1, 9] [days] | inhibition of catalytic activity of cytochrome P450 2E1 (in words) (cytochrome P450 2E1) | effect on tumor size (in words) ([2]; four days treatment) | Relative survival ([1]; Trial 3, 100 μM) [%] | Mean lifespan, Treated [1, 10] [days] | Relative survival ([1]; Trial 3, 200 μM) [%] | Mean lifespan, Treated [1, 11] [days] | Relative survival ([1]; Trial 4, 20 μM) [%] | Mean lifespan, Treated [1, 12] [days] | further results
1 | COc1ccc(C=Cc2cc(O)cc(OC)c2)cc1 [3-OH-5,4'-dimethoxystilbene, 3-hydroxy-5,4'-dimethoxystilbene] | 6.34 | 52 | 100 | 11.05 | 95 | 10.52 | 68 | 10.38 | 50 | 7.68 | 43 | 6.56 | – | – | – | – | – | – | – | – | –
2 | COc1ccc(/C=C/c2cc(O)cc(O)c2)cc1 [Desoxyrhapontigenin, desoxyrhapontigenin] | 10.64 | 88 | – | – | – | – | 93 | 14.18 | 100 | 15.31 | 89 | 13.63 | not inhibitory | consistent reductions in tumor size | 74 | 11.31 | 76 | 11.61 | 91 | 10.2 | Relative survival ([1]; Trial 4, 40 μM): 92%; Mean lifespan, Treated [1, 13]: 10.38 days; Relative survival ([1]; Trial 4, 100 μM): 84%; Mean lifespan, Treated [1, 14]: 9.44 days
3 | Oc1cc(O)cc(/C=C/c2ccc(O)c(O)c2)c1 [Piceatannol, piceatannol, reference compound] | – | – | 106 | 11.72 | 105 | 11.58 | 89 | 13.71 | 102 | 15.63 | 108 | 16.6 | – | – | 116 | 17.78 | 114 | 17.5 | – | – | –
4 | COc1cc(O)cc(/C=C/c2ccc(O)cc2)c1 [Pinostilbene, pinostilbene] | 13.6 | 112 | 91 | 10.04 | 104 | 11.53 | 93 | 14.24 | 113 | 17.33 | 106 | 16.24 | moderately inhibited | – | 110 | 16.9 | 99 | 15.23 | – | – | –
5 | COc1cc(/C=C/c2ccc(O)cc2)cc(OC)c1 [Pterostilbene, pterostilbene] | 9.55 | 79 | – | – | – | – | 90 | 13.72 | 94 | 14.41 | 72 | 10.98 | – | modestly reduced tumor size | – | – | – | – | 93 | 10.43 | Relative survival ([1]; Trial 4, 40 μM): 89%; Mean lifespan, Treated [1, 13]: 10 days; Relative survival ([1]; Trial 4, 100 μM): 72%; Mean lifespan, Treated [1, 14]: 8.07 days
6 | Oc1ccc(/C=C/c2cc(O)cc(O)c2)cc1 [Resveratrol, resveratrol, reference compound] | 12.18 | 100 | 107 | 11.85 | 95 | 10.53 | 96 | 14.65 | 106 | 16.17 | 115 | 17.55 | – | – | 108 | 16.64 | 111 | 17 | – | – | effect on germline tumor size vs untreated ([2]; 100 μM in growth medium, four days treatment, FUDR values are single trials): -4%; effect on tumor area (in words) ([2]; 200 and 400 μM dose, three trials): not associated with statistically significant reductions in tumor area

From publication PMC2532997, “Methoxylation enhances stilbene bioactivity in Caenorhabditis elegans” (BMC Pharmacology, 2008)
